Test results reported in the supplement of paper PMC4932681.

Assays:
[1] = system: T-47D; test: relative IC50 (midpoint of fitted logistic curve, plateau may be below 50% inhibition; CellTiter-Glo viability); higher = less potent; details: 72 h
Outline: (§1)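 Drug sensitivity score, relative IC50 as the curve midpoint, and top-dose inhibition were derived from logistic dose–response fits in the Breeze pipeline. These fits used CellTiter-Glo viability, read on a PHERAstar and normalised to vehicle-only and positive controls. Breast cancer cell lines and resistant derivatives had been incubated for 72 h at 37 °C in 384-well plates holding library drugs at five concentrations spanning a 10 000-fold range. Resistant lines were grown in medium with 1 μM of the selecting drug.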

[2] = system: BT-474; test: as above; details: 72 h
Outline: as §1

[3] = system: BT-474 Tam2; test: as above; details: 4-OH-tamoxifen in medium 1 µM; 72 h
Outline: as §1

[4] = system: T-47D Tam2; test: as above; details: 4-OH-tamoxifen in medium 1 µM; 72 h
Outline: as §1

[5] = system: BT-474 Tam1; test: as above; details: 4-OH-tamoxifen in medium 1 µM; 72 h
Outline: as §1

[6] = system: T-47D Tam1; test: as above; details: 4-OH-tamoxifen in medium 1 µM; 72 h
Outline: as §1

[7] = system: MCF-7; test: as above; details: 72 h
Outline: as §1

[8] = system: T-47D; test: drug sensitivity score (DSS) (DSS (dimensionless)); higher = more sensitive; extreme values may be limits of the assay; details: 72 h
Experimental: (§2)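 FIMM FO2B library drugs were tested at 5 concentrations (10,000-fold range) for 72 h, with CellTiter-Glo viability normalised to DMSO and benzethonium chloride controls. The Drug Sensitivity Score (DSS) is computed from the fitted logistic dose-response curve (area-based; 0 = inactive). Resistant lines and the 'in 1µM tamoxifen' arms were tested in 1 µM 4-OH-tamoxifen.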

[9] = system: BT-474; test: as above; details: 72 h
Experimental: as §2

[10] = system: BT-474 Tam2; test: as above; details: 4-OH-tamoxifen in medium 1 µM; 72 h
Experimental: as §2

[11] = system: ZR-75-1 Tam1; test: as above; details: 4-OH-tamoxifen in medium 1 µM; 72 h
Experimental: as §2

[12] = system: T-47D Tam2; test: as above; details: 4-OH-tamoxifen in medium 1 µM; 72 h
Experimental: as §2

[13] = system: BT-474 Tam1; test: as above; details: 4-OH-tamoxifen in medium 1 µM; 72 h
Experimental: as §2

[14] = system: ZR-75-1 Tam2; test: as above; details: 4-OH-tamoxifen in medium 1 µM; 72 h
Experimental: as §2

[15] = system: T-47D Tam1; test: as above; details: 4-OH-tamoxifen in medium 1 µM; 72 h
Experimental: as §2

[16] = system: ZR-75-1; test: as above; details: 72 h
Experimental: as §2

[17] = system: MCF-7; test: as above; details: 72 h
Experimental: as §2

[18] = system: MCF-7 Tam1; test: as above; details: 4-OH-tamoxifen in medium 1 µM; 72 h
Experimental: as §2

[19] = system: ZR-75-1 Tam2; test: relative IC50 (midpoint of fitted logistic curve, plateau may be below 50% inhibition; CellTiter-Glo viability); higher = less potent; details: 4-OH-tamoxifen in medium 1 µM; 72 h
Outline: as §1

[20] = system: ZR-75-1; test: as above; details: 72 h
Outline: as §1

[21] = system: ZR-75-1 Tam1; test: as above; details: 4-OH-tamoxifen in medium 1 µM; 72 h
Outline: as §1

Row | Compound | relative IC50 ([1]; 4-OH-tamoxifen in medium 0 µM) | relative IC50 ([1]; 4-OH-tamoxifen in medium 1 µM) | relative IC50 ([2]; 4-OH-tamoxifen in medium 1 µM) | relative IC50 [3] | relative IC50 [4] | relative IC50 [5] | relative IC50 [6] | relative IC50 ([7]; 4-OH-tamoxifen in medium 0 µM) | relative IC50 ([7]; 4-OH-tamoxifen in medium 1 µM) | drug sensitivity score ([8]; 4-OH-tamoxifen in medium 0 µM) | drug sensitivity score ([8]; 4-OH-tamoxifen in medium 1 µM) | drug sensitivity score ([9]; 4-OH-tamoxifen in medium 0 µM) | drug sensitivity score ([9]; 4-OH-tamoxifen in medium 1 µM) | drug sensitivity score [10] | drug sensitivity score [11] | drug sensitivity score [12] | drug sensitivity score [13] | drug sensitivity score [14] | drug sensitivity score [15] | drug sensitivity score ([16]; 4-OH-tamoxifen in medium 0 µM) | drug sensitivity score ([16]; 4-OH-tamoxifen in medium 1 µM) | drug sensitivity score ([17]; 4-OH-tamoxifen in medium 0 µM) | drug sensitivity score ([17]; 4-OH-tamoxifen in medium 1 µM) | drug sensitivity score [18] | relative IC50 ([2]; 4-OH-tamoxifen in medium 0 µM) | relative IC50 [19] | relative IC50 ([20]; 4-OH-tamoxifen in medium 0 µM) | relative IC50 [21] | relative IC50 ([20]; 4-OH-tamoxifen in medium 1 µM)
1 | CC(C)n1cnc2c(NCCc3ccc(O)cc3)nc(-c3csc4ccccc34)nc21 [StemRegenin 1] | 4.12 µM | 3.48 µM | 3.38 µM | 2830 nM | 1570 nM | 2120 nM | 3410 nM | 4400 nM | 335 nM | 1.21 | 2.41 | 1.47 | 5.07 | 5.49 | 0.327 | 4.97 | 7.32 | 1.51 | 1.95 | 0 | 0.414 | 1.85 | 11.7 | 0.218 |  |  |  |  | 
2 | Nc1ccccc1NC(=O)c1ccc(CNc2nccc(-c3cccnc3)n2)cc1 [Mocetotinostat (MGCD0103)] | 3.29 µM | 3.22 µM | 1.38 µM | 1210 nM | 1390 nM | 2150 nM | 688 nM | 1760 nM | 2000 nM | 4.36 | 4.03 | 5.13 | 9.43 | 8.98 | 2.33 | 3.42 | 7.26 | 2.62 | 6.2 | 1.76 | 1.86 | 6.98 | 4.99 | 0.799 | 2.06 µM | 1480 nM | 2720 nM |  | 
3 | CC(C)C[C@@H](C(=O)N[C@H](C(=O)OC1CCCC1)c1ccccc1)[C@H](O)C(=O)NO [Tosedostat (CHR 2797)] | 3.24 µM |  | 1.25 µM |  | 850 nM | 1190 nM | 768 nM | 939 nM | 1350 nM | 1.5 | 0.354 | 4 | 5.75 | 1.07 | 2.61 | 5.12 | 3.46 | 5.85 | 5.48 | 4.86 | 3.37 | 3.93 | 3.62 | 0 |  | 242 nM |  | 829 nM | 
4 | Cc1ccc(NC(=O)c2ccc(CN3CCN(C)CC3)cc2)cc1Nc1nc(-c2cccnc2)cs1 [Masitinib] | 3.57 µM | 3.46 µM | 3.64 µM | 2570 nM | 3230 nM | 3350 nM | 1780 nM | 1540 nM | 3770 nM | 1.85 | 2.81 | 0.359 | 3.44 | 5.8 | 0.886 | 1.99 | 4.94 | 1.85 | 2.68 | 0 | 0.352 | 3.51 | 1.67 | 1.1 |  | 2580 nM | > 10000 nM |  | 
5 | Nc1nc2[nH]cnc2c(=S)[nH]1 [Thioguanine] | 3.04 µM |  |  |  | 2660 nM |  | 3070 nM | 1750 nM | 1350 nM | 1.83 | 0.681 | 0.0001 | 1.03 | 0.61 | 3.48 | 2.48 | 0.758 | 2.86 | 2.75 | 4.81 | 1.76 | 4.8 | 4.57 | 1.96 |  | 1440 nM | 1080 nM | 1420 nM | 2690 nM
6 | CCc1cncnc1N1CCN(Cc2nc3ccc(C(F)(F)F)cc3[nH]2)CC1 | 1.53 µM |  | 4.06 µM | 3220 nM | 2310 nM | 3230 nM | 1570 nM | 2920 nM | 1100 nM | 2.8 | 0.435 | 1.64 | 2.18 | 2.05 | 0.834 | 1.89 | 3.7 | 1.31 | 2.79 | 0.27 | 1.12 | 1.96 | 2.72 | 0.774 | 3.3 µM |  |  |  | 
7 | O=c1[nH]cc(F)c(=O)[nH]1 [Fluorouracil] |  | > 10 µM | > 10 µM | > 10000 nM | > 10000 nM | > 10000 nM | > 10000 nM | 1430 nM | > 10000 nM | 0.0675 | 0 | 0 | 0 | 0 | 0 | 0 | 0 | 3.05 | 0 | 1.39 | 0.596 | 2.93 | 0 | 0 | > 10 µM |  |  | > 10000 nM | 
8 | O=C(CCCCCCC(=O)Nc1ccc([C@H]2O[C@@H](CSc3nc(-c4ccccc4)c(-c4ccccc4)o3)C[C@@H](c3ccc(CO)cc3)O2)cc1)NO [Tubacin] | 3.43 µM | 3.71 µM | 3.38 µM | 3840 nM | 3710 nM |  | 1840 nM | 1360 nM | 1860 nM | 2.87 | 4.31 | 1.29 | 4.44 | 1.25 | 1.41 | 1.62 | 0.976 | 0.331 | 3.65 | 0.333 | 0.912 | 5.52 | 5.63 | 0.69 |  |  |  | 3350 nM | 
